Assay results: patent US20120122908A1, “Novel C-4 Substituted Retinoids” (University of Maryland, priority 2000, published 2012)
Read-outs that look alike come from different tables or passages of the source.

Assays:
[1] = molecular target: T1, RARγ (Homo sapiens, UniProt P13631); assay: Competitive [3H]ATRA binding to recombinant RARγ; details: for binding to RARγ: concentrations up to 500 nM
T1 construct: Recombinant full-length RAR proteins were expressed as S-Tag fusion proteins in BL21 E. coli cells; S-Tag; made in house; host or cells: E. coli BL21
T1 sequence (P13631 1-454): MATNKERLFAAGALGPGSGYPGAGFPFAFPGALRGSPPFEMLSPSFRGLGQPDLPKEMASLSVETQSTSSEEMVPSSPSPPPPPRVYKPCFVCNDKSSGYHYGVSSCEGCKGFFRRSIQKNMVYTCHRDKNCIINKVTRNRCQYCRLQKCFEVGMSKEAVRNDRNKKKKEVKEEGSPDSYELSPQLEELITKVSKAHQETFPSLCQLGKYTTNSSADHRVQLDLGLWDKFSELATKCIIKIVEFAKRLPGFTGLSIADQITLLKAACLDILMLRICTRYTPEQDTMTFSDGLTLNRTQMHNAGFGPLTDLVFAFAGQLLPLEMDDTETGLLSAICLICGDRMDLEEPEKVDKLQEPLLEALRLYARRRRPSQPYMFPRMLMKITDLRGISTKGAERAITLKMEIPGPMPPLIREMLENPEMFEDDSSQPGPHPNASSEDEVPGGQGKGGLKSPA
From the text: (§1) Because the novel compounds are retinoid-related analogs, they bind to the retinoid receptors in vivo and thus have increased therapeutic potentials. Similar to ATRA, these novel compounds act as a ligand for the retinoic acid receptors (RARs, α, β, and γ) but not the retinoid X receptors (RXRs, α, β, and γ). […] (Nervi C, Grippo J F, Sherman M I, George M D, Jetten A M, Identification and characterization of nuclear retinoic acid-binding activity inhuman myeloblastic leukemia HL-60 cells, Proc Natl Acad Sci USA 86: 5854-5858, 1989) The dissociation constants for the inhibitors is determined by the well described charcoal absorption method (Yang N, Schule R, Mangelsdorf D J, Evans R M, Characterization of DNA binding and retinoic acid binding properties of retinoic acid receptor, Proc Natl Acad Sci USA 88: 3559-3663, 1991). Briefly, serial dilutions of the novel compounds (10^−11 to 10^−5 M) in dimethyl sulfoxide, 100 μL each is used. 12 mg of crude cytosolic extracts is prepared from pET15b (Novagen, Madison, Wis.)/hRAR-α, -β, and -γ prepared protein is used for each data point. All reactions are conducted in binding buffer (60 mM Na imidazole, 500 mM NaCl, 20 mM Tris, pH 7.9) for 14-16 hours at 4° C. in a final volume of 1 mL. Unbound [^3H]ATRA is removed by addition of 0.5 mL of equivalent-sized dextran-treated charcoal (final concentration 3% [wt/vol]) for 15 minutes at 4° C. […]
(§2) Since the RAMBAs are retinoic acid analogs, it is possible that some of the compounds may bind to retinoid receptors and function as either transcriptional agonists/antagonists or may display anti AP-1 activity (Chambon P, A decade of molecular biology of retinoic acid, FASEB J 10: 5899-5904, 19962. The ability of three RAMBAs, VN/14-1, VN/50A-1 and VN/66-1 to bind to the individual RAR receptors was thus evaluated in vitro. Recombinant full-length RAR proteins were expressed as S-Tag fusion proteins in BL21 E. coli cells used for competitive binding assays. Each competition-binding assay contained 1 nM [^3H] […]

[2] = molecular target: T2, RAR ? (Homo sapiens, UniProt P10826); assay: Competitive [3H]ATRA binding to recombinant RAR (third subtype); details: for binding to RAR (third subtype): concentrations up to 500 nM
T2 construct: Recombinant full-length RAR proteins were expressed as S-Tag fusion proteins in BL21 E. coli cells; S-Tag; made in house; host or cells: E. coli BL21
T2 sequence (P10826 1-455): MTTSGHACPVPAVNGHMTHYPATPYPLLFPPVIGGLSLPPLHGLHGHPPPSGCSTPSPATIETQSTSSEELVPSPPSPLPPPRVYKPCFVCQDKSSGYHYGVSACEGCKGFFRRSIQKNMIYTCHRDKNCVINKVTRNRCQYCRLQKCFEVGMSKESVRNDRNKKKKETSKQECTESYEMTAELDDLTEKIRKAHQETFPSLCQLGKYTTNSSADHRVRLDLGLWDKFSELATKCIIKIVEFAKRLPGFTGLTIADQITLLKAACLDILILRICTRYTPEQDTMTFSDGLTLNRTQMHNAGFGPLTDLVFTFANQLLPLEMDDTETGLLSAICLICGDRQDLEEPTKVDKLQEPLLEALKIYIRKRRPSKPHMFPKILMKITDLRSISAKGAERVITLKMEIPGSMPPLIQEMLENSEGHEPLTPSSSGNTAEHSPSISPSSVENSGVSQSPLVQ
From the text: as §1, §2

[3] = molecular target: T3, CYP19 (aromatase) (Homo sapiens, UniProt P11511); assay: Selectivity: effect on CYP19 (aromatase); type: biochemical; details: concentration as high as 5 μM
T3 sequence (P11511 1-503): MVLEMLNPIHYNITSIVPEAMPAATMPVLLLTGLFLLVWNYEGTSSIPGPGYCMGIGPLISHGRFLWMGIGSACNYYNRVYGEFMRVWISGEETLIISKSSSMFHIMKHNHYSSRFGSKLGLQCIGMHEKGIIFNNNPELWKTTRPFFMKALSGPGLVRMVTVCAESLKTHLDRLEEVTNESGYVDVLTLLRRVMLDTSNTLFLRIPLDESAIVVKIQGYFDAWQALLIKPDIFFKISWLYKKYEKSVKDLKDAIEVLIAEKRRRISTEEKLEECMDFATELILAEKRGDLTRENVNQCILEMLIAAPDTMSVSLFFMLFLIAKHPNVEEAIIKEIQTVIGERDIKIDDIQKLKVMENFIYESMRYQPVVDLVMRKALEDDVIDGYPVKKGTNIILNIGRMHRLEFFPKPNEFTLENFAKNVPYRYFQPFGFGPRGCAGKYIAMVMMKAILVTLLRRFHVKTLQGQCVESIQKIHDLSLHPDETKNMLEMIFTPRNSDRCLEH
Procedure: The selectivity of the compounds of the present invention towards ATRA-4-hydroxylase was tested by measuring the effect on the key enzymes in the biosynthesis of estradiol and dehydroepiandrosterone, CYP19 (aromatase) and CYP17 (17-lyase), respectively.

[4] = Pharmacokinetic studies in mice (plasma levels by HPLC); type: in vivo
Procedure: FIG. 18: Plasma Levels in Balb/c Mice Following Dose of 10 mg/kg body weight Given s/c.
Pharmacokinetic studies of VN/65-4 and VN/66-1 were measured in mice and were compared to VN/14-1 and VN/50A-1. Mice were dosed s.c. at 10 mg/kg using a vehicle, 45% β-cyclodextrin in water, and plasma levels were measured by HPLC. […] The results are summarized in Table 3 below and the profiles in FIG. 18.

[5] = 1 nM [3H]ATRA, competitor 1 nM to 500 nM
[6] = mice, 10 mg/kg s.c., average of two animals

Row | Cmax ([4]; Balb/c, mouse, plasma, sc, mice, 10 mg/kg s.c., average of two animals, read-out: Cmax) [µg/mL] | Compound | IC50 [1, 5] [nM] | IC50 [2, 5] [nM] | inhibition of CYP19 (aromatase) [3] | AUC [4, 6] [μ/ml min] | Cmax [4, 6] [µg/mL] | Tmax [4, 6] [min] | t1/2 [4, 6] [h] | binding to RARγ [1] | binding to RAR (third subtype) [2] | time to complete elimination from plasma ([4]; after administration to mice, FIG. 18) [h]
1 | – | CC1=C(/C=C/C(C)=C/C=C/C(C)=C/C(=O)O)C(C)(C)CCC1n1ccnc1 (racemic) [VN/14-1, (±)-4-(1H-imidazole-1-yl)retinoic acid] | ~16 | ~200 | barely inhibited | 567.80 | 5.02 | 30 | 1.14 | – | – | –
2 | 16 | CC(C=CC1=C(C)C(n2ccnc2)CCC1(C)C)=CC=CC(C)=CC(=O)Nc1ccc(O)cc1 (racemic) [VN/66-1, (±)-4-(1H-imidazol-1-yl), N-(4′-hydroxyphenyl)retinamide] | – | – | barely inhibited | – | – | – | – | did not bind | did not bind | –
3 | – | CC(C=CC1=C(C)C(n2ccnc2)CCC1(C)C)=CC=CC(C)=CC(=O)n1ccnc1 (stereo not drawn) [VN/50A-1] | – | – | barely inhibited | – | – | – | – | did not bind | did not bind | ≤ 3
